{
  "source": "patent US20240374740A1",
  "about": "“POLY AMPHIPHILIC COMPLEXES FOR THE DELIVERY OF A HYDROPHOBIC ACTIVE AGENT, COMPOSITIONS AND METHODS” (Université de Liège, priority 2021, published 2024)",
  "key": {"[1]": {"system": "3D7 cells synchronized at ring stage", "assay": "In vitro antimalarial growth inhibition assay (GIA), flow cytometry after 48 h", "assay_type": "cell-based, P. falciparum", "conditions": "Plasmodium falciparum, 3D7, 48 h", "description": "Since P. falciparum I usually asynchronous during in vitro culture, the generation of highly synchronized parasite cultures is requested to investigate their pharmacological properties in vitro. […] Samples of the PACs were incubated with the cells for 48 h and then parasitemia was evaluated by flow cytometry after labelling parasite nuclei with fluorescence (growth inhibition assay, GIA).\nPACs loaded with atovaquone were analysed with 3D7 cells synchronized at ring stage. Samples were incubated with the cells for 48 h and then parasitemia was evaluated by flow cytometry after labelling parasite nuclei with fluorescence (growth inhibition assay, GIA). The pharmacological activity of atovaquone is expressed in terms of drug concentration needed to inhibit 50% of the cell population (IC50) (FIG. 9)."}, "[2]": {"conditions": "cited from earlier work; for solubility in water: free drug, 25° C."}, "[3]": {"conditions": "free drug; cited from earlier work"}, "plasma proteins": {"system": "plasma proteins", "conditions": "in vivo; cited from earlier work"}, "[4]": {"assay": "Evolution with time of optical density (Do at 405 nm) of curcumin solutions in PBS pH 7.4 at 37° C.", "assay_type": "physicochemical", "conditions": "PBS pH 7.4, 37° C."}, "[5]": {"assay": "Dynamic Light Scattering (DLS) mean size of PACs", "assay_type": "physicochemical", "conditions": "ibuprofen formulations by direct dissolution, 2 h after preparation"}},
  "data": [
    {"compound": "O=C1C(O)=C([C@H]2CC[C@H](c3ccc(Cl)cc3)CC2)C(=O)c2ccccc21", "note": "[Atovaquone]", "values": [
      {"measurement": "IC50", "setting": "[1]", "result": 0.00084, "unit": "µM"},
      {"measurement": "solubility class in water (free drug)", "setting": "[2]", "result": "practically insoluble"},
      {"measurement": "LogP", "setting": "[3]", "result": 5.8},
      {"measurement": "bound to plasma proteins", "setting": "plasma proteins", "result": 99.9, "unit": "%"}
    ]},
    {"compound": "COc1cc(/C=C/C(=O)CC(=O)/C=C/c2ccc(O)c(OC)c2)ccc1O", "note": "[Curcumin, curcumin]", "values": [
      {"measurement": "optical density (Do at 405 nm)", "setting": "[4]; With BSA (1%), curcumin 2 μg/mL, 1 h", "result": 0.275},
      {"measurement": "optical density (Do at 405 nm)", "setting": "[4]; With BSA (1%), curcumin 2 μg/mL, 24 h", "result": 0.214},
      {"measurement": "optical density (Do at 405 nm)", "setting": "[4]; With BSA (1%), curcumin 2 μg/mL, 96 h", "result": 0.437},
      {"measurement": "optical density (Do at 405 nm)", "setting": "[4]; With BSA (1%), curcumin 10 μg/mL, 1 h", "result": 1.102},
      {"measurement": "optical density (Do at 405 nm)", "setting": "[4]; With BSA (1%), curcumin 10 μg/mL, 24 h", "result": 1.007},
      {"measurement": "optical density (Do at 405 nm)", "setting": "[4]; With BSA (1%), curcumin 10 μg/mL, 96 h", "result": 0.701},
      {"measurement": "optical density (Do at 405 nm)", "setting": "[4]; With BSA (1%), curcumin 20 μg/mL, 1 h", "result": 1.875},
      {"measurement": "optical density (Do at 405 nm)", "setting": "[4]; With BSA (1%), curcumin 20 μg/mL, 24 h", "result": 1.508},
      {"measurement": "optical density (Do at 405 nm)", "setting": "[4]; With BSA (1%), curcumin 20 μg/mL, 96 h", "result": 0.899},
      {"measurement": "optical density (Do at 405 nm)", "setting": "[4]; Without BSA, curcumin 2 μg/mL, 1 h", "result": 0.068},
      {"measurement": "optical density (Do at 405 nm)", "setting": "[4]; Without BSA, curcumin 2 μg/mL, 24 h", "result": 0.019},
      {"measurement": "optical density (Do at 405 nm)", "setting": "[4]; Without BSA, curcumin 2 μg/mL, 96 h", "result": 0.001},
      {"measurement": "optical density (Do at 405 nm)", "setting": "[4]; Without BSA, curcumin 10 μg/mL, 1 h", "result": 0.321},
      {"measurement": "optical density (Do at 405 nm)", "setting": "[4]; Without BSA, curcumin 10 μg/mL, 24 h", "result": 0.097},
      {"measurement": "optical density (Do at 405 nm)", "setting": "[4]; Without BSA, curcumin 10 μg/mL, 96 h", "result": 0.064},
      {"measurement": "optical density (Do at 405 nm)", "setting": "[4]; Without BSA, curcumin 20 μg/mL, 1 h", "result": 0.717},
      {"measurement": "optical density (Do at 405 nm)", "setting": "[4]; Without BSA, curcumin 20 μg/mL, 24 h", "result": 0.253},
      {"measurement": "optical density (Do at 405 nm)", "setting": "[4]; Without BSA, curcumin 20 μg/mL, 96 h", "result": 0.113},
      {"measurement": "IC50", "setting": "[1]", "result": 14.2, "unit": "µM"},
      {"measurement": "macroscopic aspect", "setting": "curcumin 5 mg/ml, direct dissolution in aqueous phase (Example 3)", "result": "slightly yellow and less turbid suspension"},
      {"measurement": "solubility class in water (free drug)", "setting": "[2]", "result": "practically insoluble"},
      {"measurement": "solubility in water", "setting": "[2]", "result": "< 1", "unit": "µg/mL"}
    ]},
    {"compound": "CC(C)Cc1ccc(C(C)C(=O)O)cc1", "note": "(stereo not shown) [Ibuprofen]", "values": [
      {"measurement": "Cumulant DLS diameter", "setting": "[5]", "result": ">1,000,000 nm"},
      {"measurement": "Macroscopic aspect 2 h after dissolution", "setting": "ibuprofen 5 mg/mL, polymer 45 mg/mL, direct dissolution in water, room temperature", "result": "Macroscopic crystals"},
      {"measurement": "solubility in water", "setting": "[2]", "result": 0.21, "unit": "µg/mL"}
    ]},
    {"compound": "CCCSc1nc(N[C@@H]2C[C@H]2c2ccc(F)c(F)c2)c2nnn([C@@H]3C[C@H](OCCO)[C@@H](O)[C@H]3O)c2n1", "note": "[Ticagrelor]", "values": [
      {"measurement": "LogP", "setting": "[3]", "result": 2.28}
    ]},
    {"compound": "Ivermectin", "values": [
      {"measurement": "LogP", "setting": "[3]", "result": 5.83}
    ]}
  ]
}
